The test system of the assay is E. coli. As to the kind of experiment: MIC against E. coli. It counts as cell-based. The note with it: Escherichia coli, read-out: MIC (μg/mL) in metallic Zn or Cu. An excerpt: Table 1 illustrates the minimum inhibitory concentration against E. coli for various agents.

Our source for the MIC values is patent US11910798B2, “Compositions including a vacancy-engineered (VE)-ZnO nanocomposite, methods of making the compositions and methods of using the compositions” (priority 2015, dated 2024).

Take `O=C([O-])c1ccccc1O.[Na+]` [Capping Agent, sodium salicylate]: the MIC was 3000 µg/mL.
